Test results reported in patent US7118895B2, “Process for producing aglycon by using diglycosidase and flavor-improved food containing the aglycon and converting agent to be used in the process” (Amano Enzyme Inc., priority 2000, dated 2006).

Tested on: Crude diglycosidase
Assay: Examination of substrate concentration in the conversion into isoflavone aglycons by diglycosidase using soybean materials;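 further: percent of the isoflavone family total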
Type: biochemical, Penicillium multicolor IAM7153
Summary of the method: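 Reaction at 55° C, shaken, pH 4.0 (20 mM acetate), using crude diglycosidase from a 1.88 AU/mL enzyme solution on soy flour, soymilk, defatted soybean or soy protein concentrate at 2, 5, 10, 20 or 30% (w/v). Isoflavone aglycons quantified by HPLC of ethanol extracts at 0, 1, 3, 6 h.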

SMILES: COc1cc2c(=O)c(-c3ccc(O)cc3)coc2cc1O [glycitein]
- Decomposition efficiency: ratio of each glycoside/aglycon within its isoflavone family (concentrated soybean protein, substrate concentration 2%, heat treatment of enzyme no, reaction time 0 h): 11.6%
- Decomposition efficiency: ratio of each glycoside/aglycon within its isoflavone family (concentrated soybean protein, substrate concentration 2%, heat treatment of enzyme no, reaction time 1 h): 85.3%
- Decomposition efficiency: ratio of each glycoside/aglycon within its isoflavone family (concentrated soybean protein, substrate concentration 2%, heat treatment of enzyme no, reaction time 3 h): 94.4%
- Decomposition efficiency: ratio of each glycoside/aglycon within its isoflavone family (concentrated soybean protein, substrate concentration 2%, heat treatment of enzyme no, reaction time 6 h): 100.0%
- Decomposition efficiency: ratio of each glycoside/aglycon within its isoflavone family (concentrated soybean protein, substrate concentration 2%, heat treatment of enzyme yes, reaction time 6 h): 11.2%
- Decomposition efficiency: ratio of each glycoside/aglycon within its isoflavone family (concentrated soybean protein, substrate concentration 5%, heat treatment of enzyme no, reaction time 0 h): 11.2%
- Decomposition efficiency: ratio of each glycoside/aglycon within its isoflavone family (concentrated soybean protein, substrate concentration 5%, heat treatment of enzyme no, reaction time 1 h): 72.4%
- Decomposition efficiency: ratio of each glycoside/aglycon within its isoflavone family (concentrated soybean protein, substrate concentration 5%, heat treatment of enzyme no, reaction time 3 h): 81.9%
- Decomposition efficiency: ratio of each glycoside/aglycon within its isoflavone family (concentrated soybean protein, substrate concentration 5%, heat treatment of enzyme no, reaction time 6 h): 87.4%
- Decomposition efficiency: ratio of each glycoside/aglycon within its isoflavone family (concentrated soybean protein, substrate concentration 5%, heat treatment of enzyme yes, reaction time 6 h): 11.3%
- Decomposition efficiency: ratio of each glycoside/aglycon within its isoflavone family (concentrated soybean protein, substrate concentration 10%, heat treatment of enzyme no, reaction time 0 h): 11.0%
- Decomposition efficiency: ratio of each glycoside/aglycon within its isoflavone family (concentrated soybean protein, substrate concentration 10%, heat treatment of enzyme no, reaction time 1 h): 66.8%
- Decomposition efficiency: ratio of each glycoside/aglycon within its isoflavone family (concentrated soybean protein, substrate concentration 10%, heat treatment of enzyme no, reaction time 3 h): 73.5%
- Decomposition efficiency: ratio of each glycoside/aglycon within its isoflavone family (concentrated soybean protein, substrate concentration 10%, heat treatment of enzyme no, reaction time 6 h): 75.8%
- Decomposition efficiency: ratio of each glycoside/aglycon within its isoflavone family (concentrated soybean protein, substrate concentration 10%, heat treatment of enzyme yes, reaction time 6 h): 11.1%
- Decomposition efficiency: ratio of each glycoside/aglycon within its isoflavone family (concentrated soybean protein, substrate concentration 20%, heat treatment of enzyme no, reaction time 0 h): 10.8%
- Decomposition efficiency: ratio of each glycoside/aglycon within its isoflavone family (concentrated soybean protein, substrate concentration 20%, heat treatment of enzyme no, reaction time 1 h): 51.2%
- Decomposition efficiency: ratio of each glycoside/aglycon within its isoflavone family (concentrated soybean protein, substrate concentration 20%, heat treatment of enzyme no, reaction time 3 h): 66.2%
- Decomposition efficiency: ratio of each glycoside/aglycon within its isoflavone family (concentrated soybean protein, substrate concentration 20%, heat treatment of enzyme no, reaction time 6 h): 69.2%
- Decomposition efficiency: ratio of each glycoside/aglycon within its isoflavone family (concentrated soybean protein, substrate concentration 20%, heat treatment of enzyme yes, reaction time 6 h): 11.1%
- Decomposition efficiency: ratio of each glycoside/aglycon within its isoflavone family (concentrated soybean protein, substrate concentration 30%, heat treatment of enzyme no, reaction time 0 h): 8.2%
- Decomposition efficiency: ratio of each glycoside/aglycon within its isoflavone family (concentrated soybean protein, substrate concentration 30%, heat treatment of enzyme no, reaction time 1 h): 61.5%
- Decomposition efficiency: ratio of each glycoside/aglycon within its isoflavone family (concentrated soybean protein, substrate concentration 30%, heat treatment of enzyme no, reaction time 3 h): 68.9%
- Decomposition efficiency: ratio of each glycoside/aglycon within its isoflavone family (concentrated soybean protein, substrate concentration 30%, heat treatment of enzyme no, reaction time 6 h): 71.4%
- Decomposition efficiency: ratio of each glycoside/aglycon within its isoflavone family (concentrated soybean protein, substrate concentration 30%, heat treatment of enzyme yes, reaction time 6 h): 8.2%
- Decomposition efficiency: ratio of each glycoside/aglycon within its isoflavone family (defatted soybean, substrate concentration 2%, heat treatment of enzyme no, reaction time 0 h): not detected
- Decomposition efficiency: ratio of each glycoside/aglycon within its isoflavone family (defatted soybean, substrate concentration 2%, heat treatment of enzyme no, reaction time 1 h): not detected
- Decomposition efficiency: ratio of each glycoside/aglycon within its isoflavone family (defatted soybean, substrate concentration 2%, heat treatment of enzyme no, reaction time 3 h): not detected
- Decomposition efficiency: ratio of each glycoside/aglycon within its isoflavone family (defatted soybean, substrate concentration 2%, heat treatment of enzyme no, reaction time 6 h): not detected
- Decomposition efficiency: ratio of each glycoside/aglycon within its isoflavone family (defatted soybean, substrate concentration 2%, heat treatment of enzyme yes, reaction time 6 h): not detected
- Decomposition efficiency: ratio of each glycoside/aglycon within its isoflavone family (defatted soybean, substrate concentration 5%, heat treatment of enzyme no, reaction time 0 h): 41.6%
- Decomposition efficiency: ratio of each glycoside/aglycon within its isoflavone family (defatted soybean, substrate concentration 5%, heat treatment of enzyme no, reaction time 1 h): 58.4%
- Decomposition efficiency: ratio of each glycoside/aglycon within its isoflavone family (defatted soybean, substrate concentration 5%, heat treatment of enzyme no, reaction time 3 h): 68.2%
- Decomposition efficiency: ratio of each glycoside/aglycon within its isoflavone family (defatted soybean, substrate concentration 5%, heat treatment of enzyme no, reaction time 6 h): 80.5%
- Decomposition efficiency: ratio of each glycoside/aglycon within its isoflavone family (defatted soybean, substrate concentration 5%, heat treatment of enzyme yes, reaction time 6 h): 41.5%
- Decomposition efficiency: ratio of each glycoside/aglycon within its isoflavone family (defatted soybean, substrate concentration 10%, heat treatment of enzyme no, reaction time 0 h): 47.0%
- Decomposition efficiency: ratio of each glycoside/aglycon within its isoflavone family (defatted soybean, substrate concentration 10%, heat treatment of enzyme no, reaction time 1 h): 45.3%
- Decomposition efficiency: ratio of each glycoside/aglycon within its isoflavone family (defatted soybean, substrate concentration 10%, heat treatment of enzyme no, reaction time 3 h): 63.4%
- Decomposition efficiency: ratio of each glycoside/aglycon within its isoflavone family (defatted soybean, substrate concentration 10%, heat treatment of enzyme no, reaction time 6 h): 72.1%
- Decomposition efficiency: ratio of each glycoside/aglycon within its isoflavone family (defatted soybean, substrate concentration 10%, heat treatment of enzyme yes, reaction time 6 h): 42.4%
- Decomposition efficiency: ratio of each glycoside/aglycon within its isoflavone family (roasted soy flour, substrate concentration 2%, heat treatment of enzyme no, reaction time 0 h): 16.2%
- Decomposition efficiency: ratio of each glycoside/aglycon within its isoflavone family (roasted soy flour, substrate concentration 2%, heat treatment of enzyme no, reaction time 1 h): 100.0%
- Decomposition efficiency: ratio of each glycoside/aglycon within its isoflavone family (roasted soy flour, substrate concentration 2%, heat treatment of enzyme no, reaction time 3 h): 100.0%
- Decomposition efficiency: ratio of each glycoside/aglycon within its isoflavone family (roasted soy flour, substrate concentration 2%, heat treatment of enzyme no, reaction time 6 h): 100.0%
- Decomposition efficiency: ratio of each glycoside/aglycon within its isoflavone family (roasted soy flour, substrate concentration 2%, heat treatment of enzyme yes, reaction time 6 h): 12.2%
- Decomposition efficiency: ratio of each glycoside/aglycon within its isoflavone family (roasted soy flour, substrate concentration 5%, heat treatment of enzyme no, reaction time 0 h): 11.4%
- Decomposition efficiency: ratio of each glycoside/aglycon within its isoflavone family (roasted soy flour, substrate concentration 5%, heat treatment of enzyme no, reaction time 1 h): 88.2%
- Decomposition efficiency: ratio of each glycoside/aglycon within its isoflavone family (roasted soy flour, substrate concentration 5%, heat treatment of enzyme no, reaction time 3 h): 92.8%
- Decomposition efficiency: ratio of each glycoside/aglycon within its isoflavone family (roasted soy flour, substrate concentration 5%, heat treatment of enzyme no, reaction time 6 h): 100.0%
- Decomposition efficiency: ratio of each glycoside/aglycon within its isoflavone family (roasted soy flour, substrate concentration 5%, heat treatment of enzyme yes, reaction time 6 h): 11.4%
- Decomposition efficiency: ratio of each glycoside/aglycon within its isoflavone family (roasted soy flour, substrate concentration 10%, heat treatment of enzyme no, reaction time 0 h): 5.5%
- Decomposition efficiency: ratio of each glycoside/aglycon within its isoflavone family (roasted soy flour, substrate concentration 10%, heat treatment of enzyme no, reaction time 1 h): 83.3%
- Decomposition efficiency: ratio of each glycoside/aglycon within its isoflavone family (roasted soy flour, substrate concentration 10%, heat treatment of enzyme no, reaction time 3 h): 90.3%
- Decomposition efficiency: ratio of each glycoside/aglycon within its isoflavone family (roasted soy flour, substrate concentration 10%, heat treatment of enzyme no, reaction time 6 h): 100.0%
- Decomposition efficiency: ratio of each glycoside/aglycon within its isoflavone family (roasted soy flour, substrate concentration 10%, heat treatment of enzyme yes, reaction time 6 h): 9.9%
- Decomposition efficiency: ratio of each glycoside/aglycon within its isoflavone family (roasted soy flour, substrate concentration 20%, heat treatment of enzyme no, reaction time 0 h): 8.6%
- Decomposition efficiency: ratio of each glycoside/aglycon within its isoflavone family (roasted soy flour, substrate concentration 20%, heat treatment of enzyme no, reaction time 1 h): 77.1%
- Decomposition efficiency: ratio of each glycoside/aglycon within its isoflavone family (roasted soy flour, substrate concentration 20%, heat treatment of enzyme no, reaction time 3 h): 86.2%
- Decomposition efficiency: ratio of each glycoside/aglycon within its isoflavone family (roasted soy flour, substrate concentration 20%, heat treatment of enzyme no, reaction time 6 h): 90.0%
- Decomposition efficiency: ratio of each glycoside/aglycon within its isoflavone family (roasted soy flour, substrate concentration 20%, heat treatment of enzyme yes, reaction time 6 h): 9.1%
- Decomposition efficiency: ratio of each glycoside/aglycon within its isoflavone family (roasted soy flour, substrate concentration 30%, heat treatment of enzyme no, reaction time 0 h): 8.8%
- Decomposition efficiency: ratio of each glycoside/aglycon within its isoflavone family (roasted soy flour, substrate concentration 30%, heat treatment of enzyme no, reaction time 1 h): 71.6%
- Decomposition efficiency: ratio of each glycoside/aglycon within its isoflavone family (roasted soy flour, substrate concentration 30%, heat treatment of enzyme no, reaction time 3 h): 75.6%
- Decomposition efficiency: ratio of each glycoside/aglycon within its isoflavone family (roasted soy flour, substrate concentration 30%, heat treatment of enzyme no, reaction time 6 h): 86.3%
- Decomposition efficiency: ratio of each glycoside/aglycon within its isoflavone family (roasted soy flour, substrate concentration 30%, heat treatment of enzyme yes, reaction time 6 h): 8.7%
- Decomposition efficiency: ratio of each glycoside/aglycon within its isoflavone family (soymilk, substrate concentration 2%, heat treatment of enzyme no, reaction time 0 h): not detected
- Decomposition efficiency: ratio of each glycoside/aglycon within its isoflavone family (soymilk, substrate concentration 2%, heat treatment of enzyme no, reaction time 1 h): 100.0%
- Decomposition efficiency: ratio of each glycoside/aglycon within its isoflavone family (soymilk, substrate concentration 2%, heat treatment of enzyme no, reaction time 3 h): 100.0%
- Decomposition efficiency: ratio of each glycoside/aglycon within its isoflavone family (soymilk, substrate concentration 2%, heat treatment of enzyme no, reaction time 6 h): 100.0%
- Decomposition efficiency: ratio of each glycoside/aglycon within its isoflavone family (soymilk, substrate concentration 2%, heat treatment of enzyme yes, reaction time 6 h): not detected
- Decomposition efficiency: ratio of each glycoside/aglycon within its isoflavone family (soymilk, substrate concentration 5%, heat treatment of enzyme no, reaction time 0 h): not detected
- Decomposition efficiency: ratio of each glycoside/aglycon within its isoflavone family (soymilk, substrate concentration 5%, heat treatment of enzyme no, reaction time 1 h): 75.4%
- Decomposition efficiency: ratio of each glycoside/aglycon within its isoflavone family (soymilk, substrate concentration 5%, heat treatment of enzyme no, reaction time 3 h): 92.5%
- Decomposition efficiency: ratio of each glycoside/aglycon within its isoflavone family (soymilk, substrate concentration 5%, heat treatment of enzyme no, reaction time 6 h): 100.0%
- Decomposition efficiency: ratio of each glycoside/aglycon within its isoflavone family (soymilk, substrate concentration 5%, heat treatment of enzyme yes, reaction time 6 h): not detected
- Decomposition efficiency: ratio of each glycoside/aglycon within its isoflavone family (soymilk, substrate concentration 10%, heat treatment of enzyme no, reaction time 0 h): 6.4%
- Decomposition efficiency: ratio of each glycoside/aglycon within its isoflavone family (soymilk, substrate concentration 10%, heat treatment of enzyme no, reaction time 1 h): 73.6%
- Decomposition efficiency: ratio of each glycoside/aglycon within its isoflavone family (soymilk, substrate concentration 10%, heat treatment of enzyme no, reaction time 3 h): 89.5%
- Decomposition efficiency: ratio of each glycoside/aglycon within its isoflavone family (soymilk, substrate concentration 10%, heat treatment of enzyme no, reaction time 6 h): 95.8%
- Decomposition efficiency: ratio of each glycoside/aglycon within its isoflavone family (soymilk, substrate concentration 10%, heat treatment of enzyme yes, reaction time 6 h): 6.2%
- Decomposition efficiency: ratio of each glycoside/aglycon within its isoflavone family (soymilk, substrate concentration 20%, heat treatment of enzyme no, reaction time 0 h): 6.3%
- Decomposition efficiency: ratio of each glycoside/aglycon within its isoflavone family (soymilk, substrate concentration 20%, heat treatment of enzyme no, reaction time 1 h): 72.2%
- Decomposition efficiency: ratio of each glycoside/aglycon within its isoflavone family (soymilk, substrate concentration 20%, heat treatment of enzyme no, reaction time 3 h): 90.6%
- Decomposition efficiency: ratio of each glycoside/aglycon within its isoflavone family (soymilk, substrate concentration 20%, heat treatment of enzyme no, reaction time 6 h): 94.1%
- Decomposition efficiency: ratio of each glycoside/aglycon within its isoflavone family (soymilk, substrate concentration 20%, heat treatment of enzyme yes, reaction time 6 h): 5.7%
- Decomposition efficiency: ratio of each glycoside/aglycon within its isoflavone family (soymilk, substrate concentration 30%, heat treatment of enzyme no, reaction time 0 h): 6.1%
- Decomposition efficiency: ratio of each glycoside/aglycon within its isoflavone family (soymilk, substrate concentration 30%, heat treatment of enzyme no, reaction time 1 h): 66.9%
- Decomposition efficiency: ratio of each glycoside/aglycon within its isoflavone family (soymilk, substrate concentration 30%, heat treatment of enzyme no, reaction time 3 h): 84.1%
- Decomposition efficiency: ratio of each glycoside/aglycon within its isoflavone family (soymilk, substrate concentration 30%, heat treatment of enzyme no, reaction time 6 h): 92.3%
- Decomposition efficiency: ratio of each glycoside/aglycon within its isoflavone family (soymilk, substrate concentration 30%, heat treatment of enzyme yes, reaction time 6 h): 6.7%
